Counter-ions that a name gives are not always drawn.
Target: T1, AR (androgen receptor) protein in VCaP cells (Homo sapiens, UniProt P10275)
T1 construct: endogenous in cells; host or cells: VCaP cells
T1 sequence (P10275 1-920): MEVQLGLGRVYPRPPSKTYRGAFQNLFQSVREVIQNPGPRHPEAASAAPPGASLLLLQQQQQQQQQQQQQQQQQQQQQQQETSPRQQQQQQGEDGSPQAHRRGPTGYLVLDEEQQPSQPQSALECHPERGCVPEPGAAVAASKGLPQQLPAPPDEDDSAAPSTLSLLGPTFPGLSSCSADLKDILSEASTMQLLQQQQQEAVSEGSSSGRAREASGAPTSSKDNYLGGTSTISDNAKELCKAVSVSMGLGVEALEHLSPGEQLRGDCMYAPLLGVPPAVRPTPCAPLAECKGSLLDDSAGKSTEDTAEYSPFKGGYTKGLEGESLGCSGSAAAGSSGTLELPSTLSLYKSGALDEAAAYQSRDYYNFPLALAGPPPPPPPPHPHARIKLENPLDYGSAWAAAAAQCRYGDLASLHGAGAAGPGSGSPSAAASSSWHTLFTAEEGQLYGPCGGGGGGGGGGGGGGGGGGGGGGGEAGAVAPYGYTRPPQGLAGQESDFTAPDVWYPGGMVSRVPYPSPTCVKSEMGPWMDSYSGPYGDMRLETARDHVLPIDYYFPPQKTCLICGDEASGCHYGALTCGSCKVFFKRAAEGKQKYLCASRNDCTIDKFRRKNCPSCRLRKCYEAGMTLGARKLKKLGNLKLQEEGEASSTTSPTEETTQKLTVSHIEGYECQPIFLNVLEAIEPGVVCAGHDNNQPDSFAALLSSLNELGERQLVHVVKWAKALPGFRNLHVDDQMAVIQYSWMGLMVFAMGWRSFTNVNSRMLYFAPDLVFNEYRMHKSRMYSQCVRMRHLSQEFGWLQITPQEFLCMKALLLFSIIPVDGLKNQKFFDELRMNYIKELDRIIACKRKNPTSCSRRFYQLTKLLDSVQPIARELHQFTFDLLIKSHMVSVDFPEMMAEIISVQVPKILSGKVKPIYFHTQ
Test: VCAP AR Degradation Assay
Format: cell-based
Conditions: 24 h, AR ELISA; for DC50: concentration of compound when AR level = 50% of DMSO control; for remaining activity at up to 5 µM: top concentration 5 μM, read-out: Y (lowest measured AR level normalized to DMSO control, AR degradation efficiency)
Protocol: VCAP AR Degradation Assay. Test compounds were pre-dispensed into a Corning CellBind 96-well clear bottom plate (Cat #3300) using an acoustic dispenser to make a 10-point concentration series at 1:3 dilution for each compound. The final top concentration of each compound was 5 μM. DMSO at a final concentration of 0.1% was used as a control. VCaP cells cultured in DMEM with 8% fetal bovine serum (FBS) were seeded at 50K cells per well in a 200 μL volume into the compound plate and incubated at 37° C. in a CO2 incubator for 24 h. The medium was carefully removed from the cells and the plate was placed on ice. One hundred μL of ice-cold 1× cell lysis buffer from Cell Signaling Technologies (Cat #9803) was added to each well of the cells and the plate was incubated at 4° C. on a shaker for 1 h. Fifteen μL of cell lysate was used for AR ELISA detection using a PathScan Total Sandwich AR ELISA kit (Cell Signaling Technology, Cat #12580). AR levels in compound-treated wells were normalized to that of DMSO control and expressed as percent of control (PoC) (y). A Four Parameter Logistic Model (Sigmoidal Dose-Response Model) was used to determine the compound's DC50, and EC50, using the following equation: y=(A+((B−A)/(1+((C/x)^D)))) • A=YMin (lowest AR level normalized to DMSO control in response to compound treatment, as determined by curve fit) • B=YMax (maximum AR level as determined by curve fit) • C=EC50 • D=Hill Slope • x=compound concentration • EC50=the concentration of compound when y=(YMax−YMin)/2 • DC50=the concentration of the compound when y=50% of DMSO control (50% AR degradation) • y=AR protein level normalized to DMSO control
The lowest measured AR level normalized to DMSO control in response to compound treatment, termed Y value, was used to characterize the compound-mediated AR degradation efficiency.

`C[C@@H]1C[C@H](CCO[C@H]2CC[C@H](N3C(=S)N(c4ccc(C#N)c(C(F)(F)F)c4)C(=O)C3(C)C)CC2)C[C@H](C)N1CC(=O)Nc1cccc2c(C3CCC(=O)NC3=O)nn(C)c12` (stereo partly drawn) [Cmpd 13, 2-((2R,4r,6S)-4-(2-((trans-4-(3-(4-Cyano-3-(trifluoromethyl)phenyl)-5,5-dimethyl-4-oxo-2-thioxoimidazolidin-1-yl)cyclohexyl)oxy)ethyl)-2,6-dimethylpiperidin-1-yl)-N-(3-(2,6-dioxopiperidin-3-yl)-1-methyl-1H-indazol-7-yl)acetamide hydrochloride] gave a DC50 of 2 to 5 nM and a remaining activity at up to 5 µM of 0 to 25%.

For `Cn1nc(C2CCC(=O)NC2=O)c2cccc(NC(=O)CN3CCN(CCO[C@H]4CC[C@H](N5C(=S)N(c6ccc(C#N)c(C(F)(F)F)c6)C(=O)C5(C)C)CC4)C[C@@H]3C(F)(F)F)c21` (stereo partly drawn) [Cmpd 14, 2-((R)-4-(2-((trans-4-(3-(4-Cyano-3-(trifluoromethyl)phenyl)-5,5-dimethyl-4-oxo-2-thioxoimidazolidin-1-yl)cyclohexyl)oxy)ethyl)-2-(trifluoromethyl)piperazin-1-yl)-N-(3-(2,6-dioxopiperidin-3-yl)-1-methyl-1H-indazol-7-yl)acetamide hydrochloride], the DC50 was < 2 nM and the remaining activity at up to 5 µM was 0 to 25%.

For `C[C@@H]1C[C@H](CCO[C@H]2CC[C@H](N3C(=S)N(c4cnc(C#N)c(C(F)(F)F)c4)C(=O)C3(C)C)CC2)C[C@H](C)N1CC(=O)Nc1cccc2c(C3CCC(=O)NC3=O)nn(C)c12` (stereo partly drawn) [Cmpd 15, 2-((2R,4r,6S)-4-(2-(((trans)-4-(3-(6-Cyano-5-(trifluoromethyl)pyridine-3-yl)-5,5-dimethyl-4-oxo-2-thioxoimidazolidin-1-yl)cyclohexyl)oxy)ethyl)-2,6-dimethylpiperidin-1-yl)-N-(3-(2,6-dioxopiperidin-3-yl)-1-methyl-1H-indazol-7-yl)acetamide], the DC50 was < 2 nM and the remaining activity at up to 5 µM was 0 to 25%.

In the case of `C[C@@H]1C[C@@H](CCO[C@H]2CC[C@H](N3C(=S)N(c4cnc(C#N)c(C(F)(F)F)c4)C(=O)C3(C)C)CC2)C[C@H](C)N1CC(=O)Nc1cccc2c(C3CCC(=O)NC3=O)nn(C)c12` (stereo partly drawn) [Cmpd 16, 2-((2R,4s,6S)-4-(2-(((trans)-4-(3-(6-Cyano-5-(trifluoromethyl)pyridin-3-yl)-5,5-dimethyl-4-oxo-2-thioxoimidazolidin-1-yl)cyclohexyl)oxy)ethyl)-2,6-dimethylpiperidin-1-yl)-N-(3-(2,6-dioxopiperidin-3-yl)-1-methyl-1H-indazol-7-yl)acetamide], the DC50 is reported as < 2 nM and the remaining activity at up to 5 µM is reported as 0 to 25%.

For `Cn1nc(C2CCC(=O)NC2=O)c2cccc(NC(=O)CN3CCN(CCC[C@H]4CC[C@H](N5C(=S)N(c6cnc(C#N)c(C(F)(F)F)c6)C(=O)C5(C)C)CC4)C[C@@H]3C(F)(F)F)c21` (stereo partly drawn) [Cmpd 17, 2-((R)-4-(3-((trans)-4-(3-(6-Cyano-5-(trifluoromethyl)pyridin-3-yl)-5,5-dimethyl-4-oxo-2-thioxoimidazolidin-1-yl)cyclohexyl)propyl)-2-(trifluoromethyl)piperazin-1-yl)-N-(3-(2,6-dioxopiperidin-3-yl)-1-methyl-1H-indazol-7-yl)acetamide], the DC50 was 2 to 5 nM and the remaining activity at up to 5 µM was 0 to 25%.

Work on `Cn1nc(C2CCC(=O)NC2=O)c2cccc(NC(=O)CN3CCN(CCC[C@H]4CC[C@H](N5C(=S)N(c6ccc(C#N)c(C(F)(F)F)c6)C(=O)C5(C)C)CC4)C[C@@H]3C(F)(F)F)c21` (stereo partly drawn) [Cmpd 18, 2-((R)-4-(3-((trans)-4-(3-(4-Cyano-3-(trifluoromethyl)phenyl)-5,5-dimethyl-4-oxo-2-thioxoimidazolidin-1-yl)cyclohexyl)propyl)-2-(trifluoromethyl)piperazin-1-yl)-N-(3-(2,6-dioxopiperidin-3-yl)-1-methyl-1H-indazol-7-yl)acetamide] yielded a DC50 of 5 to 20 nM and a remaining activity at up to 5 µM of 25 to 30%.

Compound `C[C@@H]1CN(CCCC[C@H]2CC[C@H](N3C(=S)N(c4ccc(C#N)c(C(F)(F)F)c4)C(=O)C3(C)C)CC2)C[C@H](C)N1CC(=O)Nc1cccc2c(C3CCC(=O)NC3=O)nn(C)c12` (stereo partly drawn) [Cmpd 19, 2-((2S,6R)-4-(4-((trans)-4-(3-(4-Cyano-3-(trifluoromethyl)phenyl)-5,5-dimethyl-4-oxo-2-thioxoimidazolidin-1-yl)cyclohexyl)butyl)-2,6-dimethylpiperazin-1-yl)-N-(3-(2,6-dioxopiperidin-3-yl)-1-methyl-1H-indazol-7-yl)acetamide] has a DC50 of 2 to 5 nM and a remaining activity at up to 5 µM of 0 to 25%.

In the case of `Cn1nc(C2CCC(=O)NC2=O)c2cccc(NC(=O)CN3CCN(CCCO[C@H]4CC[C@H](N5C(=S)N(c6cnc(C#N)c(C(F)(F)F)c6)C(=O)C5(C)C)CC4)C[C@@H]3C(F)(F)F)c21` (stereo partly drawn) [Cmpd 20, 2-((R)-4-(3-(((trans)-4-(3-(6-Cyano-5-(trifluoromethyl)pyridin-3-yl)-5,5-dimethyl-4-oxo-2-thioxoimidazolidin-1-yl)cyclohexyl)oxy)propyl)-2-(trifluoromethyl)piperazin-1-yl)-N-(3-(2,6-dioxopiperidin-3-yl)-1-methyl-1H-indazol-7-yl)acetamide], the DC50 is reported as 2 to 5 nM and the remaining activity at up to 5 µM is reported as 0 to 25%.

In the case of `Cn1nc(C2CCC(=O)NC2=O)c2cccc(NC(=O)CN3CCN(CCCO[C@H]4CC[C@H](N5C(=S)N(c6ccc(C#N)c(C(F)(F)F)c6)C(=O)C5(C)C)CC4)C[C@@H]3C(F)(F)F)c21` (stereo partly drawn) [Cmpd 21, 2-((R)-4-(3-(((trans)-4-(3-(4-Cyano-3-(trifluoromethyl)phenyl)-5,5-dimethyl-4-oxo-2-thioxoimidazolidin-1-yl)cyclohexyl)oxy)propyl)-2-(trifluoromethyl)piperazin-1-yl)-N-(3-(2,6-dioxopiperidin-3-yl)-1-methyl-1H-indazol-7-yl)acetamide], the DC50 is reported as < 2 nM and the remaining activity at up to 5 µM is reported as 0 to 25%.

With `Cn1nc(C2CCC(=O)NC2=O)c2cccc(NC(=O)CN3CCN(CCO[C@H]4CC[C@H](N5C(=S)N(c6cnc(C#N)c(C(F)(F)F)c6)C(=O)C5(C)C)CC4)C[C@@H]3C(F)(F)F)c21` (stereo partly drawn) [Cmpd 22, 2-((R)-4-(2-(((trans)-4-(3-(6-Cyano-5-(trifluoromethyl)pyridin-3-yl)-5,5-dimethyl-4-oxo-2-thioxoimidazolidin-1-yl)cyclohexyl)oxy)ethyl)-2-(trifluoromethyl)piperazin-1-yl)-N-(3-(2,6-dioxopiperidin-3-yl)-1-methyl-1H-indazol-7-yl)acetamide] the DC50 was < 2 nM and the remaining activity at up to 5 µM was 0 to 25%.

Work on `C[C@@H]1C[C@H](OCCC[C@H]2CC[C@H](N3C(=S)N(c4ccc(C#N)c(C(F)(F)F)c4)C(=O)C3(C)C)CC2)C[C@H](C)N1CC(=O)Nc1cccc2c(C3CCC(=O)NC3=O)nn(C)c12` (stereo partly drawn) [Cmpd 23, 2-((2R,4r,6S)-4-(3-((trans)-4-(3-(4-Cyano-3-(trifluoromethyl)phenyl)-5,5-dimethyl-4-oxo-2-thioxoimidazolidin-1-yl)cyclohexyl)propoxy)-2,6-dimethylpiperidin-1-yl)-N-(3-(2,6-dioxopiperidin-3-yl)-1-methyl-1H-indazol-7-yl)acetamide] yielded a DC50 of 20 to 100 nM and a remaining activity at up to 5 µM of 0 to 25%.

Source: US12227490B2, “Cereblon binding compounds, compositions thereof, and methods of treatment therewith” (Celgene Corporation, priority 2020, dated 2025)
